Experiment [1] concerns LoVo (CCL-229) human colorectal cancer cells. The experiment in a line: Tumor cell anti-proliferation assay (CTG assay). Format: cell-based. The settings on record: 96 h incubation, CellTiter-Glo, IC50 (Y=50%). An excerpt:
Assay 2: Tumor Cell Anti-proliferation Assay (CTG Assay)
Human colorectal cancer cells HT-29 (HTB-38) and LoVo (CCL-229) were selected for the CTG assay, the two cell lines were originally obtained from the American Type Culture Collection (ATCC). Add FBS and appropriate additives into base medium to prepare complete medium, then briefly rinse the cell layer with 0.25% (w/v) Trypsin-0.038% (w/v) EDTA solution to remove all traces of serum that contains trypsin inhibitor, after that, add appropriate volume of Trypsin-EDTA solution to flask and observe cells under an inverted microscope until cell layer is dispersed, at last, add appropriate volume of complete growth medium and aspirate cells by gently pipetting. Collect and count numbers with Vi-cell XR and adjust cell density, seed cells into 96-well opaque-walled clear bottom tissue-culture treated plates in the CO2 incubator for 20-24 hours. All the test compounds will be at 10 mM in DMSO. Compounds are then added to the cell media in 3-fold serial dilutions, the final DMSO concentration is 0.5%. Incubate plates for 96 h at 5% CO2, 37° C. Before the measurement, transfer the appropriate volume of CellTiter-Glo Buffer into the amber bottle containing CellTiter-Glo substrate to reconstitute the lyophilized enzyme/substrate mixture, mix gently, this forms the CellTiter-Glo Reagent (Promega Cat. No. G7573). Equilibrate the plate and its contents to room temperature for approximately 30 minutes, then add 100 µL of CellTiter-Glo Reagent to the assay plate, mix contents for 2 minutes on an orbital shaker to induce cell lysis, incubate at room temperature for 10 minutes to stabilize luminescent signal, at last paste the clear bottom with white back seal and record luminescence with Enspire. IC50 and GI50 values were calculated with XLFit curve fitting software using 4 Parameter Logistic Model Y=Bottom + (Top-Bottom)/(1+(IC50/X)^HillSlope).
The following Table 3 provides the IC50 (Y=50%) values for exemplary compounds of Formula (I).
On the technique in general: In ATP-based viability assays light output follows the ATP content of the culture.

Experiment [2] addresses T1, ATR kinase (Homo sapiens, UniProt Q13535).
T1 construct: purchased Eurofins 14-953
As to the kind of experiment: ATR inhibition assay (mobility shift assay, FAM-RAD17 phosphorylation). Format: biochemical. The note with it: substrate FAM-RAD17, ATR kinase (Eurofins). As to the method: Assay 1: ATR Inhibition Assay
The assay was developed and conducted at Chempartner. All the test compounds were dissolved in 100% DMSO at concentration of 20 mM, then prepare compounds and conducted the assay as follows:
1) Transfer 80 µl20 mM compound to 40 µl of 100% DMSO in a 96-well plate.
2) Serially dilute the compound by transferring 20 µl to 60 µl of 100% DMSO in the next well and so forth for a total of 10 concentrations.
3) Add 100 µl of 100% DMSO to two empty wells for no compound control and no enzyme control in the same 96-well plate. Mark the plate as source plate.
4) Transfer 40 µl of compound from source plate to a new 384-well plate as the intermediate plate.
5) Transfer 60 nl compounds to assay plate by Echo.
No. D14JP007N) into Kinase base buffer (50 mM HEPES, pH 7.5; 0.0015% Brij-35; 0.01% Triton) to prepare 2x enzyme solution, then add 10 µl of 2x enzyme solution to each well of the 384-well assay plate, incubate at room temperature for 10 min.
8) Incubate at 28° C. for specified period of time. Add 40 µl of stop buffer (100 mM HEPES, pH 7.5; 0.015% Brij-35; 0.2% Coating Reagent #3; 50 mM EDTA) to stop reaction.
9) Collect data on Caliper. Convert conversion values to inhibition values.
wherein “max” stands for DMSO control; “min” stands for low control.
Fit the data in XLFit excel add-in version 5.4.0.8 to obtain IC50 values. Equation used is: […]
wherein X means concentration in a format not transformed to logarithms.

T1 sequence (Q13535 whole entry): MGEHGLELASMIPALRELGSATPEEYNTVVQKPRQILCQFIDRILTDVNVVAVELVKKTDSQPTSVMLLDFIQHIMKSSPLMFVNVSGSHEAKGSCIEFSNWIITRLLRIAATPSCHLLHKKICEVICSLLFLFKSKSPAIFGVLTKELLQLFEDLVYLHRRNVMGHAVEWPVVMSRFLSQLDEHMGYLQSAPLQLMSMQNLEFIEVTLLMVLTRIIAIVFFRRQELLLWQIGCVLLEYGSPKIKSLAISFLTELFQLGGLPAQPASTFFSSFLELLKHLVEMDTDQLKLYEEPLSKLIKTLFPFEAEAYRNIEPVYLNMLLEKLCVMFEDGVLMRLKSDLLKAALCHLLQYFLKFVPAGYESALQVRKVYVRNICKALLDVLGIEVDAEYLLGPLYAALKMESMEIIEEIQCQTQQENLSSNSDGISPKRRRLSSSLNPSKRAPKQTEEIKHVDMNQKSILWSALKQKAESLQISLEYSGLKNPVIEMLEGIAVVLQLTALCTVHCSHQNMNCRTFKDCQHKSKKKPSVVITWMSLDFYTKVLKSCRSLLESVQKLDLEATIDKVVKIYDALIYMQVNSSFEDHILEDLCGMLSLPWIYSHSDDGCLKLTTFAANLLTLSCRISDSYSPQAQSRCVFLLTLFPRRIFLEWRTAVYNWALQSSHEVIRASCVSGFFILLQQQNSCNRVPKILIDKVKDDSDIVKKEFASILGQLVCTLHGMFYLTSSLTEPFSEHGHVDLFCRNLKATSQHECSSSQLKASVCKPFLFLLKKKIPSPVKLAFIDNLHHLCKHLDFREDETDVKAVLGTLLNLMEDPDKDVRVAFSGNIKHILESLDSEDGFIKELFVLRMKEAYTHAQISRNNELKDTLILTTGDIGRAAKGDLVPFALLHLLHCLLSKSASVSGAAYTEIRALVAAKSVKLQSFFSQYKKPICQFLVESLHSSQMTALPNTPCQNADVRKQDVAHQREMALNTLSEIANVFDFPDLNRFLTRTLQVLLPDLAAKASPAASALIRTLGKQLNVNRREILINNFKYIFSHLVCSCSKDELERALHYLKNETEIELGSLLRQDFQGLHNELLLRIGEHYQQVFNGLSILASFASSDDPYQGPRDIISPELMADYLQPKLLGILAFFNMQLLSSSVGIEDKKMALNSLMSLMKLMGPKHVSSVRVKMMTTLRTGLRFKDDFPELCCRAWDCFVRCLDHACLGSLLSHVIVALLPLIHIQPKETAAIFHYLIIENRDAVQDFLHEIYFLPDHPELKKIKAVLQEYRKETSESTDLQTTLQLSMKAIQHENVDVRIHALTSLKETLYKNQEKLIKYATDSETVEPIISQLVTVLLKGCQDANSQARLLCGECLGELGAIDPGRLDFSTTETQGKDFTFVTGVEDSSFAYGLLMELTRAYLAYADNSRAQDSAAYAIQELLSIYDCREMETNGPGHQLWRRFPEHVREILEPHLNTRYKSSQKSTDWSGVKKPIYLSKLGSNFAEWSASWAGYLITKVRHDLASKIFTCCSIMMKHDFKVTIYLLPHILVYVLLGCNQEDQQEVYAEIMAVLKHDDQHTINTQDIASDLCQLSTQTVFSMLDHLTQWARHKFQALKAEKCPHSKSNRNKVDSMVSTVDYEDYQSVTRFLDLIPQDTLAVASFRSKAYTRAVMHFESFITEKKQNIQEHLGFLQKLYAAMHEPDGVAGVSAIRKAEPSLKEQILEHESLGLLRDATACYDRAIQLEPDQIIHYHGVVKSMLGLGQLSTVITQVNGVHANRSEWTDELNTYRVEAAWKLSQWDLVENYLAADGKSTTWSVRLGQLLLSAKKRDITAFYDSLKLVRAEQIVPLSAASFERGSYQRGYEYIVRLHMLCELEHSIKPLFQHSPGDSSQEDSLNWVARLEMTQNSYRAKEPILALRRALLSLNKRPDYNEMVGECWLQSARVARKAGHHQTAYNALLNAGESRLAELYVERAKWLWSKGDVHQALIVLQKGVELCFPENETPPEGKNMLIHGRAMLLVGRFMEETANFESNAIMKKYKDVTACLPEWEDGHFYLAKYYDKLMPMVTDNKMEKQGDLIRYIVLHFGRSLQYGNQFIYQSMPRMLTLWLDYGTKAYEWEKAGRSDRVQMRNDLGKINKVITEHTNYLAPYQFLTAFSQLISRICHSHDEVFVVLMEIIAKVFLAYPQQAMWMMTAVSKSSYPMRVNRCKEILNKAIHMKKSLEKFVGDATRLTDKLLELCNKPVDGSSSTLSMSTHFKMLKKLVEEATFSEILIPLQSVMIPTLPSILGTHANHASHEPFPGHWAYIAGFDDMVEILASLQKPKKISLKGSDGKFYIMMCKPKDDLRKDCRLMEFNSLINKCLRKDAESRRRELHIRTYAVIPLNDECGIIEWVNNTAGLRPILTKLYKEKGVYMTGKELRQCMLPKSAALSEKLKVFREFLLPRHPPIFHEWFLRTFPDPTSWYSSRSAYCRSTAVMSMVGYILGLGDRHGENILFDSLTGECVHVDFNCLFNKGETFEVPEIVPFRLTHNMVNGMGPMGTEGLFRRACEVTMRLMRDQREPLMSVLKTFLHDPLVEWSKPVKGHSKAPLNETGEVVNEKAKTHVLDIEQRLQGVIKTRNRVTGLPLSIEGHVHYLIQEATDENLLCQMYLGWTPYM
T1 sequence (Q8WXE1 whole entry partner): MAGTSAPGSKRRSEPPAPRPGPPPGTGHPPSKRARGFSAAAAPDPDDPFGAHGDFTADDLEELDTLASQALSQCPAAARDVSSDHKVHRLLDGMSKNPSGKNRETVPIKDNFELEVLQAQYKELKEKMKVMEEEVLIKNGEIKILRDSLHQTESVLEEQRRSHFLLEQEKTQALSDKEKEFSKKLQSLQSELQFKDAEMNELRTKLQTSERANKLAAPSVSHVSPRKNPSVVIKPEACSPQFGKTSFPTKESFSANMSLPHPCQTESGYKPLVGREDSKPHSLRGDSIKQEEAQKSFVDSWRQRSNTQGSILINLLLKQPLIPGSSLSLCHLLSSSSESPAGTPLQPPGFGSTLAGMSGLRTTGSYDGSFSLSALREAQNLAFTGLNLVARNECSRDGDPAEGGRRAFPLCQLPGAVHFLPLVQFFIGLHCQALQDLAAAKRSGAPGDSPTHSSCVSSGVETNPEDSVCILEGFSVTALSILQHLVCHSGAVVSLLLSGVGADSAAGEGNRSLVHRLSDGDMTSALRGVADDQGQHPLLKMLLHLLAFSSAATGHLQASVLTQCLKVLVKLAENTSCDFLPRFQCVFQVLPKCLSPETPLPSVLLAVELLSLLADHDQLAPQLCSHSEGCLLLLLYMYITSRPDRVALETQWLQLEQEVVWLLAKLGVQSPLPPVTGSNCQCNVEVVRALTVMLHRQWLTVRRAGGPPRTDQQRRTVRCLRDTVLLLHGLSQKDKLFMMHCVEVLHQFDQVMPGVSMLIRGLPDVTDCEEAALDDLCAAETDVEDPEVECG

On to `C[C@@H]1COCCN1c1cc(C2(S(C)(=O)=O)CC2)cc(Nc2ccn[nH]2)n1` [Compound 1, (R)-6-(3-methylmorpholino)-4-(1-(methylsulfonyl)cyclopropyl)-N-(1H-pyrazol-5-yl)pyridin-2-amine], for which the IC50 (as a rule, the concentration needed to halve the response being measured) in experiment [1] was found to be 334 nM; in experiment [2] it was 14.4 nM. `Cc1cnn(C)c1-c1cc(Nc2ccn[nH]2)nc(N2CCOC[C@H]2C)c1` [Compound 4, (R)-4-(1,4-dimethyl-1H-pyrazol-5-yl)-6-(3-methylmorpholino)-N-(1H-pyrazol-5-yl)pyridin-2-amine]: the results for the 50% inhibitory concentration (IC50) in experiment [1] and in experiment [2] were 385 nM and 16.3 nM, respectively. With `C[C@@H]1COCCN1c1cc(C2(S(C)(=O)=O)CC2)nc(Nc2ccn[nH]2)n1` [Compound 5, (R)-4-(3-methylmorpholino)-6-(1-(methylsulfonyl)cyclopropyl)-N-(1H-pyrazol-5-yl)pyrimidin-2-amine], the midpoint of inhibition in experiment [1], the IC50, lay at 653 nM. Take `Cc1cc(Nc2nc(N3CCOC[C@H]3C)cc(C3(S(C)(=O)=O)CC3)n2)[nH]n1` [Compound 6, 4-(1-methanesulfonylcyclopropyl)-N-(3-methyl-1H-pyrazol-5-yl)-6-[(3R)-3-methylmorpholin-4-yl]pyrimidin-2-amine]: the values for the IC50 in experiment [1] and in experiment [2] were 401 nM and 16 nM, respectively. Regarding `C[C@@H]1COCCN1c1cc(C(C)(C)S(C)(=O)=O)nc(Nc2ccn[nH]2)n1` [Compound 7, (R)-4-(3-methylmorpholino)-6-(2-(methylsulfonyl)propan-2-yl)-N-(1H-pyrazol-5-yl)pyrimidin-2-amine], the values for the IC50 in experiment [1] and in experiment [2] were 872 nM and 28 nM, respectively. For `Cc1cc(Nc2nc(N3CCOC[C@H]3C)cc(C(C)(C)S(C)(=O)=O)n2)[nH]n1` [Compound 8, (R)-N-(3-methyl-1H-pyrazol-5-yl)-4-(3-methylmorpholino)-6-(2-(methylsulfonyl)propan-2-yl)pyrimidin-2-amine] the same measures were 398 nM and 13.2 nM.

`Cc1cc(Nc2nc(N3CCOC[C@H]3C)cc(C3(C#N)CC3)n2)[nH]n1` [Compound 9, (R)-1-(2-((3-methyl-1H-pyrazol-5-yl)amino)-6-(3-methylmorpholino)pyrimidin-4-yl)cyclopropanecarbonitrile]: the IC50 is 538 nM in experiment [1] and 22 nM in experiment [2]. Turning to `Cc1cc(Nc2nc(N3CCOC[C@H]3C)cc(C(C)(C)C#N)n2)[nH]n1` [Compound 10, (R)-2-methyl-2-(2-((3-methyl-1H-pyrazol-5-yl)amino)-6-(3-methylmorpho-lino)pyrimidin-4-yl)propanenitrile], the IC50 came to 263 nM in experiment [1] and 10 nM in experiment [2]. `C[C@@H]1COCCN1c1cc(C2(S(C)(=O)=O)CCOCC2)nc(Nc2ccn[nH]2)n1` [Compound 11, (R)-4-(3-methylmorpholino)-6-(4-(methylsulfonyl)tetrahydro-2H-pyran-4-yl)-N-(1H-pyrazol-5-yl)pyrimidin-2-amine] registered an IC50 in experiment [1] of 1310 nM. For `Cc1cc(Nc2nc(N3CCOC[C@H]3C)cc(C3(S(C)(=O)=O)CCOCC3)n2)[nH]n1` [Compound 12, (R)-N-(3-methyl-1H-pyrazol-5-yl)-4-(3-methylmorpholino)-6-(4-(methylsulfonyl)tetrahydro-2H-pyran-4-yl)pyrimidin-2-amine], the values for the IC50 in experiment [1] and in experiment [2] were 611 nM and 13 nM, respectively. The molecule `C[C@@H]1COCCN1c1cc(N(C)S(C)(=O)=O)cc(Nc2ccn[nH]2)n1` [Compound 13, (R)-N-(2-((1H-pyrazol-5-yl)amino)-6-(3-methylmorpholino)pyridin-4-yl)-N-methylmethanesulfonamide] displayed an IC50 in experiment [1] of 807 nM.

As to `Cc1cnn(C)c1-c1cc(N2CCOC[C@H]2C)nc(Nc2ccn[nH]2)c1CO` [Compound 15, (R)-(2-((1H-pyrazol-5-yl)amino)-4-(1,4-dimethyl-1H-pyrazol-5-yl)-6-(3-methylmorpholino)pyridin-3-yl)methanol], the IC50 in experiment [1] is 515 nM. The molecule `C[C@@H]1COCCN1c1cc(C2(S(C)(=O)=O)CC2)c(CO)c(Nc2ccn[nH]2)n1` [Compound 17, (R)-(2-((1H-pyrazol-5-yl)amino)-6-(3-methylmorpholino)-4-(1-(methylsulfo-nyl)cyclopropyl)pyridin-3-yl)methanol] displayed an IC50 in experiment [1] of 594 nM. For the molecule `Cc1cc(Nc2cc(C3(S(C)(=O)=O)CC3)cc(N3CCOC[C@H]3C)n2)[nH]n1` [Compound 19, 4-(1-methanesulfonylcyclopropyl)-N-(3-methyl-1H-pyrazol-5-yl)-6-[(3R)-3-methylmorpholin-4-yl]pyridin-2-amine], the IC50 came to 225 nM in experiment [1] and 10.3 nM in experiment [2]. With `Cc1noc(C)c1-c1cc(Nc2ccn[nH]2)nc(N2CCOC[C@H]2C)c1` [Compound 22, (R)-4-(3,5-dimethylisoxazol-4-yl)-6-(3-methylmorpholino)-N-(1H-pyrazol-5-yl)pyridin-2-amine], in experiment [1], the half-inhibitory concentration (IC50) is 192 nM. In experiment [1], `Cc1cnn(C)c1-c1cc(N2CCOC[C@H]2C)nc(Nc2ccn[nH]2)c1F` [Compound 33, (R)-4-(1,4-dimethyl-1H-pyrazol-5-yl)-3-fluoro-6-(3-methylmorpholino)-N-(1H-pyrazol-5-yl)pyridin-2-amine] gave an IC50 of 842 nM. In experiment [1], `C[C@@H]1COCCN1c1cc(C2(S(C)(=O)=O)CC2)c(F)c(Nc2ccn[nH]2)n1` [Compound 34, (R)-3-fluoro-6-(3-methylmorpholino)-4-(1-(methylsulfonyl)cyclopropyl)-N-(1H-pyrazol-5-yl)pyridin-2-amine] yielded an IC50 of 442 nM. Same read-out and setting: the result for `Cc1cc(Nc2cc(C3(S(C)(=O)=O)CCOCC3)cc(N3CCOC[C@H]3C)n2)[nH]n1` [Compound 36, (R)-N-(3-methyl-1H-pyrazol-5-yl)-6-(3-methylmorpholino)-4-(4-(methylsulfonyl)tetrahydro-2H-pyran-4-yl)pyridin-2-amine] reads 966 nM; that for `C[C@@H]1COCCN1c1cc(C2(C#N)CCCC2)cc(Nc2ccn[nH]2)n1` [Compound 37, 1-{2-[(3R)-3-methylmorpholin-4-yl]-6-[(1H-pyrazol-5-yl)amino]pyridin-4-yl}cyclopentane-1-carbonitrile], 800 nM. For `C[C@@H]1COCCN1c1cc(C2(C#N)CCOCC2)cc(Nc2ccn[nH]2)n1` [Compound 39, (R)-4-(2-((1H-pyrazol-5-yl)amino)-6-(3-methylmorpholino)pyridin-4-yl) tetrahydro-2H-pyran-4-carbonitrile], in experiment [1], the IC50 stood at 844 nM. In the case of `C[C@@H]1COCCN1c1cc(C2(C#N)CCCC2)nc(Nc2ccn[nH]2)n1` [Compound 40, (R)-1-(2-((1H-pyrazol-5-yl)amino)-6-(3-methylmorpholino)pyrimidin-4-yl) cyclopentane-1-carbonitrile], the IC50 in experiment [1] came to 698 nM. `C[C@@H]1COCCN1c1cc(C2(S(C)(=O)=O)CCOCC2)cc(Nc2ccn[nH]2)n1` [Compound 45, (R)-6-(3-methylmorpholino)-4-(4-(methylsulfonyl)tetrahydro-2H-pyran-4-yl)-N-(1H-pyrazol-5-yl)pyridin-2-amine] had an IC50 in experiment [1] of 1010 nM. Take `Cc1cc(Nc2cc(-c3c(C)cnn3C)cc(N3CCOC[C@H]3C)n2)[nH]n1` [Compound 46, (R)-4-(1,4-dimethyl-1H-pyrazol-5-yl)-N-(3-methyl-1H-pyrazol-5-yl)-6-(3-methylmorpholino)pyridin-2-amine]: the IC50 in experiment [1] was determined as 410 nM. On the same count and under the same terms, with `Cc1cc(Nc2cc(-c3c(C)noc3C)cc(N3CCOC[C@H]3C)n2)[nH]n1` [Compound 47, (R)-4-(3,5-dimethylisoxazol-4-yl)-N-(3-methyl-1H-pyrazol-5-yl)-6-(3-methylmorpholino)pyridin-2-amine] the figure was 390 nM.

For the origin of these results see US20230339927A1, “ATR INHIBITORS AND USES THEREOF” (ANTENGENE DISCOVERY LIMITED, priority 2020, published 2023).
